Species on record: Rattus norvegicus
Format: toxicity, organism-based, Sprague-Dawley
Settings: in vivo, 24 h, time 1 day; for ABSOLUTE EOSINOPHIL / ABSOLUTE LYMPHOCYTE / ABSOLUTE MONOCYTE / ABSOLUTE SEGMENTED NEUTROPHIL / BASOPHIL / EOSINOPHIL / ERYTHROCYTE COUNT / HEMATOCRIT / HEMOGLOBIN / LEUKOCYTE COUNT / LYMPHOCYTE / MEAN CORPUSCULAR HEMOGLOBIN / MEAN CORPUSCULAR HEMOGLOBIN CONCENTRATION / MEAN CORPUSCULAR VOLUME / MONOCYTE / NEUTROPHIL / NUCLEATED RED BLOOD CELLS / PLATELET COUNT / ABSOLUTE BASOPHIL: tissue Blood; for ALANINE AMINOTRANSFERASE / ALBUMIN / ALKALINE PHOSPHATASE / ASPARTATE AMINOTRANSFERASE / BLOOD UREA NITROGEN / CARBON DIOXIDE / CHLORIDE / CHOLESTEROL / CREATININE / GLUCOSE / LACTATE DEHYDROGENASE / LIPASE / PHOSPHORUS / POTASSIUM / SODIUM / TOTAL BILIRUBIN / TOTAL PROTEIN / URIC ACID / CREATINE PHOSPHOKINASE: tissue Plasma
[1] = sc, 0 mg/kg, vehicle control, route mini-PUMP - SUBCUTANEOUS, dose level Control, vehicle 100 % SALINE
[2] = sc, […], route mini-PUMP - SUBCUTANEOUS, dose 0.065 mg/Kg, dose level High, vehicle 100 % SALINE
[3] = po, 0 mg/kg, vehicle control, route oral GAVAGE, dose level Control, […]
[4] = po, 900 mg/kg, route oral GAVAGE, dose level High, […]

Description: DrugMatrix - Regimen: Single

SMILES: C[C@]12CCC(=O)C=C1CC[C@@H]1[C@@H]2[C@@H](O)C[C@]2(C=O)[C@@H](C(=O)CO)CC[C@@H]12 [ALDOSTERONE]
- ABSOLUTE EOSINOPHIL [1]: 26.17 CELLS/uL
- ABSOLUTE LYMPHOCYTE [1]: 10985.83 CELLS/uL
- ABSOLUTE MONOCYTE [1]: 234.5 CELLS/uL
- ABSOLUTE SEGMENTED NEUTROPHIL [1]: 1753.5 CELLS/uL
- BASOPHIL [1]: 0%
- EOSINOPHIL [1]: 0.17%
- ERYTHROCYTE COUNT [1]: 5.64 x10E6/uL
- HEMATOCRIT [1]: 34.52%
- HEMOGLOBIN [1]: 12.68 G/DL
- LEUKOCYTE COUNT [1]: 13 x10E3/uL
- LYMPHOCYTE [1]: 84.5%
- MEAN CORPUSCULAR HEMOGLOBIN [1]: 22.5 pg
- MEAN CORPUSCULAR HEMOGLOBIN CONCENTRATION [1]: 36.78 G/DL
- MEAN CORPUSCULAR VOLUME [1]: 61.18 fL
- MONOCYTE [1]: 1.83%
- NEUTROPHIL [1]: 13.5%
- NUCLEATED RED BLOOD CELLS [1]: 0.17 /100WBC
- PLATELET COUNT [1]: 679.17 x10E3/uL
- ALANINE AMINOTRANSFERASE [1]: 42.67 u/L
- ALBUMIN [1]: 3.77 G/DL
- ALKALINE PHOSPHATASE [1]: 291.17 u/L
- ASPARTATE AMINOTRANSFERASE [1]: 74.5 u/L
- BLOOD UREA NITROGEN [1]: 15.33 mg/dL
- CARBON DIOXIDE [1]: 30 mmol/L
- CHLORIDE [1]: 100.83 MEQ/L
- CHOLESTEROL [1]: 65.33 mg/dL
- CREATININE [1]: 0.15 mg/dL
- GLUCOSE [1]: 179.83 mg/dL
- LACTATE DEHYDROGENASE [1]: 162.67 u/L
- LIPASE [1]: 8.5 u/L
- PHOSPHORUS [1]: 12.2 mg/dL
- POTASSIUM [1]: 5.73 MEQ/L
- SODIUM [1]: 144.7 MEQ/L
- TOTAL BILIRUBIN [1]: 0.15 mg/dL
- TOTAL PROTEIN [1]: 5.87 G/DL
- URIC ACID [1]: 1.93 mg/dL
- ABSOLUTE EOSINOPHIL [2]: 35 CELLS/uL
- ABSOLUTE LYMPHOCYTE [2]: 9989.33 CELLS/uL
- ABSOLUTE MONOCYTE [2]: 255.33 CELLS/uL
- ABSOLUTE SEGMENTED NEUTROPHIL [2]: 2453.67 CELLS/uL
- BASOPHIL [2]: 0%
- EOSINOPHIL [2]: 0.33%
- ERYTHROCYTE COUNT [2]: 5.74 x10E6/uL
- HEMATOCRIT [2]: 34.13%
- HEMOGLOBIN [2]: 12.57 G/DL
- LEUKOCYTE COUNT [2]: 12.73 x10E3/uL
- LYMPHOCYTE [2]: 78.33%
- MEAN CORPUSCULAR HEMOGLOBIN [2]: 21.87 pg
- MEAN CORPUSCULAR HEMOGLOBIN CONCENTRATION [2]: 36.77 G/DL
- MEAN CORPUSCULAR VOLUME [2]: 59.43 fL
- MONOCYTE [2]: 2.33%
- NEUTROPHIL [2]: 19%
- NUCLEATED RED BLOOD CELLS [2]: 0.33 /100WBC
- PLATELET COUNT [2]: 980 x10E3/uL
- ALANINE AMINOTRANSFERASE [2]: 37.33 u/L
- ALBUMIN [2]: 3.87 G/DL
- ALKALINE PHOSPHATASE [2]: 321.67 u/L
- ASPARTATE AMINOTRANSFERASE [2]: 76 u/L
- BLOOD UREA NITROGEN [2]: 11.67 mg/dL
- CARBON DIOXIDE [2]: 27.67 mmol/L
- CHLORIDE [2]: 101.33 MEQ/L
- CHOLESTEROL [2]: 65.33 mg/dL
- CREATININE [2]: 0.14 mg/dL
- GLUCOSE [2]: 206.67 mg/dL
- LACTATE DEHYDROGENASE [2]: 145.67 u/L
- LIPASE [2]: 9 u/L
- PHOSPHORUS [2]: 13.27 mg/dL
- POTASSIUM [2]: 5.08 MEQ/L
- SODIUM [2]: 146.53 MEQ/L
- TOTAL BILIRUBIN [2]: 0.17 mg/dL
- TOTAL PROTEIN [2]: 5.9 G/DL
- URIC ACID [2]: 2.27 mg/dL

SMILES: Clc1ccc(Cl)cc1 [1,4-DICHLOROBENZENE]
- ABSOLUTE BASOPHIL [3]: 46.7 cells/µL
- ABSOLUTE EOSINOPHIL [3]: 130 cells/µL
- ABSOLUTE LYMPHOCYTE [3]: 8720 cells/µL
- ABSOLUTE MONOCYTE [3]: 140 cells/µL
- BASOPHIL [3]: 0.43%
- EOSINOPHIL [3]: 1.33%
- ERYTHROCYTE COUNT [3]: 6.45 x10E6/uL
- HEMATOCRIT [3]: 42.2%
- HEMOGLOBIN [3]: 13.33 G/DL
- LEUKOCYTE COUNT [3]: 10.59 x10E3/uL
- LYMPHOCYTE [3]: 82.13%
- MEAN CORPUSCULAR HEMOGLOBIN [3]: 20.67 pg
- MEAN CORPUSCULAR HEMOGLOBIN CONCENTRATION [3]: 31.6 G/DL
- MEAN CORPUSCULAR VOLUME [3]: 65.4 fL
- MONOCYTE [3]: 1.37%
- NEUTROPHIL [3]: 14.3%
- PLATELET COUNT [3]: 1048.67 x10E3/uL
- ALANINE AMINOTRANSFERASE [3]: 44 u/L
- ALBUMIN [3]: 3.93 G/DL
- ALKALINE PHOSPHATASE [3]: 551.33 u/L
- ASPARTATE AMINOTRANSFERASE [3]: 97 u/L
- BLOOD UREA NITROGEN [3]: 13.5 mg/dL
- CARBON DIOXIDE [3]: 37.33 mmol/L
- CHLORIDE [3]: 102.33 MEQ/L
- CHOLESTEROL [3]: 83 mg/dL
- CREATINE PHOSPHOKINASE [3]: 365.33 u/L
- CREATININE [3]: 0.4 mg/dL
- GLUCOSE [3]: 189 mg/dL
- LACTATE DEHYDROGENASE [3]: 170.33 u/L
- LIPASE [3]: 10.67 u/L
- PHOSPHORUS [3]: 11.53 mg/dL
- POTASSIUM [3]: 5.63 MEQ/L
- SODIUM [3]: 144.33 MEQ/L
- TOTAL BILIRUBIN [3]: 0.4 mg/dL
- TOTAL PROTEIN [3]: 6.27 G/DL
- URIC ACID [3]: 0.87 mg/dL
- ABSOLUTE BASOPHIL [4]: 10 cells/µL
- ABSOLUTE EOSINOPHIL [4]: 23.3 cells/µL
- ABSOLUTE LYMPHOCYTE [4]: 4230 cells/µL
- ABSOLUTE MONOCYTE [4]: 80 cells/µL
- BASOPHIL [4]: 0.2%
- EOSINOPHIL [4]: 0.5%
- ERYTHROCYTE COUNT [4]: 6.97 x10E6/uL
- HEMATOCRIT [4]: 46.93%
- HEMOGLOBIN [4]: 15 G/DL
- LEUKOCYTE COUNT [4]: 5.04 x10E3/uL
- LYMPHOCYTE [4]: 83.5%
- MEAN CORPUSCULAR HEMOGLOBIN [4]: 21.5 pg
- MEAN CORPUSCULAR HEMOGLOBIN CONCENTRATION [4]: 31.97 G/DL
- MEAN CORPUSCULAR VOLUME [4]: 67.33 fL
- MONOCYTE [4]: 1.67%
- NEUTROPHIL [4]: 13.93%
- PLATELET COUNT [4]: 1227 x10E3/uL
- ALANINE AMINOTRANSFERASE [4]: 45.33 u/L
- ALBUMIN [4]: 3.87 G/DL
- ALKALINE PHOSPHATASE [4]: 421.33 u/L
- ASPARTATE AMINOTRANSFERASE [4]: 99.33 u/L
- BLOOD UREA NITROGEN [4]: 12.67 mg/dL
- CARBON DIOXIDE [4]: 34.67 mmol/L
- CHLORIDE [4]: 103 MEQ/L
- CHOLESTEROL [4]: 65.67 mg/dL
- CREATINE PHOSPHOKINASE [4]: 827.67 u/L
- CREATININE [4]: 0.5 mg/dL
- GLUCOSE [4]: 188.67 mg/dL
- LACTATE DEHYDROGENASE [4]: 235.33 u/L
- LIPASE [4]: 15.67 u/L
- PHOSPHORUS [4]: 13.87 mg/dL
- POTASSIUM [4]: 6 MEQ/L
- SODIUM [4]: 142.67 MEQ/L
- TOTAL BILIRUBIN [4]: 0.8 mg/dL
- TOTAL PROTEIN [4]: 6.33 G/DL
- URIC ACID [4]: 0.7 mg/dL
